One assay deals with Ba/F3^BCR-FMS-11 cells. Nature of the assay: Cell proliferation experiment (Ba/F3^BCR-FMS-11, cckit-8). It is filed as cell-based, mouse. As to conditions: Ba/F3^BCR-FMS-11 cell proliferation. The method in brief: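 Ba/F3 cells stably expressing BCR-FMS, CSF-1R-dependent for growth, seeded at 5000/well in RPMI 1640 with 10% FBS and exposed to 8 compound concentrations for 72 h at 37 °C.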

Assay [1] has as its target CSF1R phosphorylation in THP-1 cells (Homo sapiens (Human), UniProt P07333). The experiment in a line: Detection of CSF1R phosphorylation activity at cell level (THP-1, M-CSF stimulated, ELISA). Type of assay: cell-based. As to conditions: p-CSF1R ELISA, compound 60 min, 300 ng/mL M-CSF 1 min. The essentials: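 THP-1 cells (5×10^4/well, RPMI 1640, 2% FBS) were pre-treated with compound for 60 min at 37 °C, then stimulated with 300 ng/mL M-CSF for 1 min and lysed. Phospho-CSF1R was read by sandwich ELISA (p-CSF1R capture, anti-phosphotyrosine-HRP detection, OD 450/570 nm). IC50 was fitted with cell-free wells as background.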
For orientation: An ELISA detects its analyte on a solid surface through an enzyme-linked reagent.

Assay [2] concerns the target Recombinant human CSF1R kinase (Homo sapiens (Human), UniProt P07333). Type of assay: biochemical. As to conditions: Z-LYTE Tyr 1 peptide substrate.
Method: Measurement of CSF1R Kinase Activity at Molecular Level
1. Reagents and materials:
• Z-LYTE™ Tyr 1 peptide substrate: Invitrogen, PV3190; • 5× kinase buffer: Invitrogen, PV3189; • 10 mM ATP: Invitrogen, PV3227; • Development reagent B: Invitrogen, PV3295; • Development buffer: Invitrogen, P3127; • Stopping solution: Invitrogen, P3094; • Recombinant human CSF1R kinase: Invitrogen, PR4598A; • 384 well plate, black: Corning, 3575; Envision: Perkin Elmer. 2. Preparation of reaction solutions
1) 1.33× kinase buffer: 5× kinase buffer was diluted to a 1.33× kinase buffer with ddH2O.
2) Dilution of a 4× test compound: The test compound was diluted in gradient to 4-fold the reaction concentration and the concentration of DMSO was kept at 8%. The final concentration of the compound in reaction was: 1, 0.33, 0.11, 0.037, 0.012, 0.004, 0.0014, 0.00046 μM, and the final concentration of DMSO was 2%.
3) A mixture of kinase/peptide substrate: In 1.33× kinase buffer, the kinase and Z-LYTE™ Tyr 1 peptide substrate were diluted to 0.12 μg/mL and 4 μM, respectively, to prepare a mixture of kinase/peptide substrate. The mixture was mixed gently with a pipette.
4) A phosphorylated peptide substrate solution (PP solution): 0.4 μL of Z-LYTE™ Tyr1 phosphorylated peptide substrate was added to 99.6 μL of 1.33× kinase buffer.
5) ATP solution: 10 mM of ATP was diluted to 760 μM with 1.33× kinase buffer to prepare ATP solution.
6) Development solution: Development reagent B was diluted with Development buffer at a ratio of 1:200.
1) Kinase reaction (10 μL system)
2.5 μL of 4× test compound was added to each reaction well of the 384 plate, and the corresponding volume of 8% DMSO was added to the control well. The plate was placed on ice. 5 μL of a mixture of kinase/peptide substrate, 2.5 μL of kinase buffer and ATP solution were successively added to each well. Three control groups were set up: Group C1 contains only kinase buffer, group C2 contains the mixture of kinase/peptide substrate, kinase buffer and ATP, and group C3 contains 5 μL of PP solution. After adding the reaction components, the 384-well plate was sealed and incubated at 25-30° C. for 1 h in dark.
5 μL of Development solution was added to each well, sealed and incubated at 25-30° C. for another 1 h in dark.
3) Reaction stopping and plate reading
5 μL of stopping solution was added to each well. The Coumarin value (excitation at 400 nm, emission at 445 nm) and Fluorescein value (excitation at 400 nm, emission at 520 nm) were measured, respectively.
ER (emission ratio): Coumarin emission read-out (445 nm)/Fluorescein emission read-out (520 nm); • C3 445 nm: 100% phosphorylated Coumarin emission read-out; • C3 520 nm: 100% phosphorylated Fluorescein emission read-out; • C1 445 nm: 0% phosphorylated Coumarin emission read-out; • C1 520 nm: 0% phosphorylated Fluorescein emission read-out. Inhibition rate % (IR)=[1−% phosphorylation ratetest sample/100% phosphorylation ratecontrol]×100%
% phosphorylation ratetest sample: phosphorylation rate of the test compound; • 100% phosphorylation ratecontrol: phosphorylation rate of C3 control group.
5. IC50 values: calculated by using software XL-Fit™ (version 5.3) supplied by ID Business Solutions (Guildford, UK), which is an additional software to Microsoft Excel.

CSF1R phosphorylation in THP-1 cells, sequence (P07333 20-972): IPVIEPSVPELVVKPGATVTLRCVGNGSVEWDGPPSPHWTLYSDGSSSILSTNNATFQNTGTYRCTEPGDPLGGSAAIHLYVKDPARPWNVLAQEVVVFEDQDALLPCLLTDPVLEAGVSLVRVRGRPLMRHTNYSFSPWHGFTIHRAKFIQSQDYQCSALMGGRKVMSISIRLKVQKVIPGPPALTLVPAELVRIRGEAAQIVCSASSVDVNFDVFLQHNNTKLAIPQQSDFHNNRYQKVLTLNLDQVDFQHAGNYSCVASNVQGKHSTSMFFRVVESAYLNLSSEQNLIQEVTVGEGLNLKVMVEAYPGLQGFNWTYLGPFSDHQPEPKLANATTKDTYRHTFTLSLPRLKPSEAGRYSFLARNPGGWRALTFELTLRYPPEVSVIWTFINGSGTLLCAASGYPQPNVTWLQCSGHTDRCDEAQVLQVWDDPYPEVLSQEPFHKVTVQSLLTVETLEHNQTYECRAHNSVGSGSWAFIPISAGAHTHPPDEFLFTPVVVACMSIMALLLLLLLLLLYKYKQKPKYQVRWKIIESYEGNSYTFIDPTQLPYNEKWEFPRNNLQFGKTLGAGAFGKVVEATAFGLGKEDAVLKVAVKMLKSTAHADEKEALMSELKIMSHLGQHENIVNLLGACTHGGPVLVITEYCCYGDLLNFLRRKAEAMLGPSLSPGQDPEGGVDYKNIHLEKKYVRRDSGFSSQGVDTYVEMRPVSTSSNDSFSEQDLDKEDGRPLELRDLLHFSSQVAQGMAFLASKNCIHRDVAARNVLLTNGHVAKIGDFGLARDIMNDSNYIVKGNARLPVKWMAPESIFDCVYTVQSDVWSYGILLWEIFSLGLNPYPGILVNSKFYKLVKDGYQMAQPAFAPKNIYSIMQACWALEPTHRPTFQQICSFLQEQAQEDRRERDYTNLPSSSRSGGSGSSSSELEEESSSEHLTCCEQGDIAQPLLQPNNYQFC
Recombinant human CSF1R kinase, sequence (P07333 20-972): as above

With `Cc1ncc(C(=O)Nc2ccc(Oc3ccnc(Nc4ccccn4)c3)cn2)c(=O)n1C` [Compound 65], the IC50 (usually the concentration at which inhibition is half-maximal) is 8 nM in the assay with Ba/F3^BCR-FMS-11 cells (Mus musculus, 72 h); 10 nM in assay [1]; 5 nM in assay [2].
Take `Cc1ncc(C(=O)Nc2ccc(Oc3ccnc(-c4ccn5ccnc5c4)c3)cn2)c(=O)n1C` [Compound 66]: the IC50 in the assay on Ba/F3^BCR-FMS-11 cells (Mus musculus, 72 h) came to 55 nM; in assay [1] it was 23 nM; in assay [2] it was 54 nM.
As to `Cn1cc(Nc2cc(Oc3ccc(NC(=O)c4cccn(C)c4=O)nc3)ccn2)cn1` [Compound 67], the IC50 in the assay with Ba/F3^BCR-FMS-11 cells (72 hours) turned out to be 25 nM; in assay [1], 9 nM; in assay [2] it was 33 nM.
For `Cc1ncc(C(=O)Nc2ccc(Oc3ccnc(Nc4ccn(C(F)F)n4)c3)cn2)c(=O)n1C` [Compound 68], the 50% inhibitory concentration (IC50) in the assay with Ba/F3^BCR-FMS-11 cells (Mus musculus, 72 h) worked out at 12 nM; in assay [1], 6 nM; in assay [2] it was 7 nM.
For the compound `O=C(Nc1ccc(Oc2ccnc(Nc3ccn(C(F)F)n3)c2)cn1)c1cnc2n(c1=O)CCC2` [Compound 69], the IC50 was found to be 4 nM in the assay on Ba/F3^BCR-FMS-11 cells (Mus musculus, 72 h); 3 nM in assay [1]; 3 nM in assay [2].
As to `CC(C)n1cccc(C(=O)Nc2ccc(Oc3ccnc(-c4ccnn4C)c3)cn2)c1=O` [Compound 70], the IC50 with Ba/F3^BCR-FMS-11 cells (Mus musculus, 72 h) was determined as 225 nM; in assay [1], 203 nM; in assay [2] it was 32 nM.
As for `CC(C)n1cccc(C(=O)Nc2ccc(Oc3ccnc(-c4ccn(C)n4)c3)cn2)c1=O` [Compound 71], the IC50 in the assay with Ba/F3^BCR-FMS-11 cells (Mus musculus, 72 h) was 51 nM; in assay [1], 36 nM; in assay [2], 10 nM.
With `Cn1cc(-c2cc(Oc3ccc(NC(=O)c4cc5ccccc5n(C)c4=O)nc3)ccn2)cn1` [Compound 72], the IC50 in the assay on Ba/F3^BCR-FMS-11 cells (Mus musculus, 72 h) was found to be 7 nM; in assay [1], 16 nM; in assay [2], 14 nM.
With `CC(C)c1ncc(C(=O)Nc2ccc(Oc3ccnc(-c4cnn(C)c4)c3)cn2)c(=O)n1C` [Compound 73], the IC50 worked out at 17 nM in the assay with Ba/F3^BCR-FMS-11 cells (Mus musculus, 72 h); 31 nM in assay [1]; 11 nM in assay [2].
Consider `Cc1c(F)cc(C(=O)Nc2ccc(Oc3ccnc(Nc4cnn(C)c4)c3)cn2)c(=O)n1C` [Compound 75], for which the IC50 with Ba/F3^BCR-FMS-11 cells (Mus musculus, 72 h) was determined as 7 nM; in assay [1] it was 14 nM; in assay [2], 8 nM.
Turning to `Cc1c(F)cc(C(=O)Nc2ccc(Oc3ccnc(Nc4ccnn4C)c3)cn2)c(=O)n1C` [Compound 76], the IC50 with Ba/F3^BCR-FMS-11 cells (Mus musculus, 72 h) was 4 nM; in assay [1] it was 18 nM; in assay [2], 5 nM.
Regarding `Cn1nccc1Nc1cc(Oc2ccc(NC(=O)c3cc(F)cn(C)c3=O)nc2)ccn1` [Compound 77], the IC50 in the assay on Ba/F3^BCR-FMS-11 cells (Mus musculus, 72 h) is 5 nM; in assay [1], 10 nM; in assay [2] it was 6 nM.
Consider `Cn1cc(Nc2cc(Oc3ccc(NC(=O)c4cc(F)cn(C)c4=O)nc3)ccn2)cn1` [Compound 78], for which the IC50 was determined as 11 nM in the assay with Ba/F3^BCR-FMS-11 cells (Mus musculus, 72 h); 11 nM in assay [1]; 15 nM in assay [2].
For `Cn1cc(-c2cc(Oc3ccc(NC(=O)c4cc(F)cn(C)c4=O)nc3)ccn2)cn1` [Compound 80], the IC50 in the assay on Ba/F3^BCR-FMS-11 cells (Mus musculus, 72 h) stood at 5 nM; in assay [1], 3 nM; in assay [2], 4 nM.
Consider `CN(C)CCn1cccc(C(=O)Nc2ccc(Oc3ccnc(-c4cnn(C)c4)c3)cn2)c1=O` [Compound 81, 1-(2-(dimethylamino)ethyl)-N-(5-((2-(1-methyl-1H-pyrazol-4-yl)pyridin-4-yl)oxy)pyridin-2-yl)-2-oxo-1,2-dihydropyridine-3-carboxamide], for which the concentration for half-maximal inhibition (IC50) in the assay with Ba/F3^BCR-FMS-11 cells (Mus musculus, 72 hours) turned out to be 143 nM; in assay [1], 145 nM; in assay [2], 34 nM.
As for `COCCn1cccc(C(=O)Nc2ccc(Oc3ccnc(-c4cnn(C)c4)c3)cn2)c1=O` [Compound 82], the IC50 turned out to be 9 nM with Ba/F3^BCR-FMS-11 cells (Mus musculus, 72 h); 11 nM in assay [1]; 6 nM in assay [2].
Taken in the same sequence, the figures for `Cn1cc(-c2cc(Oc3ccc(NC(=O)c4cccn(C5COC5)c4=O)nc3)ccn2)cn1` [Compound 83] were 7 nM, 13 nM and 9 nM.
Taken in the same sequence, the figures for `Cn1cc(-c2cc(Oc3ccc(NC(=O)c4cccn(CCO)c4=O)nc3)ccn2)cn1` [Compound 84] were 8 nM, 10 nM and 6 nM.
The matching figures for `Cn1cc(-c2cc(Oc3ccc(NC(=O)c4cccn(C)c4=O)nc3)ccn2)cn1` [Compound 85]: 7 nM, 5 nM and 5 nM.
With `CC(C)n1cccc(C(=O)Nc2ccc(Oc3ccnc(-c4cnn(C)c4)c3)cn2)c1=O` [Compound 86], the IC50 was determined as 7 nM in the assay with Ba/F3^BCR-FMS-11 cells (Mus musculus, 72 h); 7 nM in assay [1]; 5 nM in assay [2].
For `C=CCn1cccc(C(=O)Nc2ccc(Oc3ccnc(-c4cnn(C)c4)c3)cn2)c1=O` [Compound 88], the IC50 in the assay with Ba/F3^BCR-FMS-11 cells (Mus musculus, 72 h) stood at 8 nM; in assay [1], 10 nM; in assay [2] it was 3 nM.
Consider `Cn1cc(-c2cc(Oc3ccc(NC(=O)c4cccn(C5CCC5)c4=O)nc3)ccn2)cn1` [Compound 89], for which the IC50 in the assay on Ba/F3^BCR-FMS-11 cells (Mus musculus, 72 h) was determined as 8 nM; in assay [1], 16 nM; in assay [2] it was 8 nM.
As to `Cn1cc(-c2cc(Oc3ccc(NC(=O)c4ccc(C(F)(F)F)n(C)c4=O)nc3)ccn2)cn1` [Compound 90], the IC50 in the assay with Ba/F3^BCR-FMS-11 cells (Mus musculus, 72 h) is 2 nM; in assay [1], 10 nM; in assay [2], 6 nM.
In the case of `Cc1ccc(C(=O)Nc2ccc(Oc3ccnc(-c4cnn(C)c4)c3)cn2)c(=O)n1C` [Compound 91], the IC50 in the assay on Ba/F3^BCR-FMS-11 cells (Mus musculus, 72 h) came to 3 nM; in assay [1] it was 9 nM; in assay [2] it was 3 nM.
Take `Cc1nc(NC(=O)c2cccn(C(C)C)c2=O)ccc1Oc1ccnc(-c2cnn(C)c2)c1` [Compound 93, 1-isopropyl-N-(6-methyl-5-((2-(1-methyl-1H-pyrazol-4-yl)pyridin-4-yl)oxy)pyridin-2-yl)-2-oxo-1,2-dihydropyridine-3-carboxamide]: the IC50 was found to be 13 nM in the assay with Ba/F3^BCR-FMS-11 cells (Mus musculus, 72 h); 61 nM in assay [1]; 17 nM in assay [2].
Consider `CC(C)n1cccc(C(=O)Nc2ccc(Oc3ccnc(-c4cnn(CCO)c4)c3)cn2)c1=O` [Compound 95, N-(5-((2-(1-(2-hydroxyethyl)-1H-pyrazol-4-yl)pyridin-4-yl)oxy)pyridin-2-yl)-1-isopropyl-2-oxo-1,2-dihydropyridine-3-carboxamide], for which the concentration for half-maximal inhibition (IC50) in the assay with Ba/F3^BCR-FMS-11 cells (Mus musculus, 72 h) was 14 nM; in assay [1], 16 nM; in assay [2], 8 nM.
Consider `CC(C)n1cccc(C(=O)Nc2ccc(Oc3ccnc(Nc4cnn(C)c4)c3)cn2)c1=O` [Compound 96, 1-isopropyl-N-(5-((2-((1-methyl-1H-pyrazol-4-yl)amino)pyridin-4-yl)oxy)pyridin-2-yl)-2-oxo-1,2-dihydropyridine-3-carboxamide], for which the IC50 was found to be 10 nM in the assay with Ba/F3^BCR-FMS-11 cells (Mus musculus, 72 h); 8 nM in assay [1]; 8 nM in assay [2].
As for `Cn1cc(Nc2cc(Oc3ccc(NC(=O)c4cccn(C)c4=O)nc3)ccn2)cn1` [Compound 97], the IC50 with Ba/F3^BCR-FMS-11 cells (Mus musculus, 72 h) is 15 nM; in assay [1], 7 nM; in assay [2] it was 18 nM.
For the compound `Cn1ncc(-c2cc(Oc3ccc(NC(=O)c4cccn(C)c4=O)nc3)ccn2)n1` [Compound 99, 1-methyl-N-(5-((2-(2-methyl-2H-1,2,3-triazol-4-yl)pyridin-4-yl)oxy)pyridin-2-yl)-2-oxo-1,2-dihydropyridine-3-carboxamide], the IC50 was 534 nM in the assay on Ba/F3^BCR-FMS-11 cells (Mus musculus, 72 h); 748 nM in assay [1]; 70 nM in assay [2].
Take `CC(C)n1cccc(C(=O)Nc2ccc(Oc3ccnc(-c4cn(C)cn4)c3)cn2)c1=O` [Compound 100]: the IC50 was 15 nM in the assay with Ba/F3^BCR-FMS-11 cells (Mus musculus, 72 h); 15 nM in assay [1]; 8 nM in assay [2].
`Cc1ccc(-c2cc(Oc3ccc(NC(=O)c4cccn(C(C)C)c4=O)nc3)ccn2)cn1` [Compound 101]: the 50% inhibitory concentration (IC50) worked out at 31 nM in the assay with Ba/F3^BCR-FMS-11 cells (Mus musculus, 72 h); 22 nM in assay [1]; 7 nM in assay [2].
For the compound `CC(C)n1cccc(C(=O)Nc2ccc(Oc3ccnc(-c4nccn4C)c3)cn2)c1=O` [Compound 102], the IC50 in the assay with Ba/F3^BCR-FMS-11 cells (Mus musculus, 72 h) worked out at 151 nM; in assay [1] it was 132 nM; in assay [2], 36 nM.
`CC(C)n1cccc(C(=O)Nc2ccc(Oc3ccnc(-c4cn(C)nn4)c3)cn2)c1=O` [Compound 103]: the IC50 in the assay on Ba/F3^BCR-FMS-11 cells (Mus musculus, 72 h) is 9 nM; in assay [1] it was 7 nM; in assay [2], 6 nM.
As for `Cn1cc(-c2cc(Oc3ccc(NC(=O)c4cccn(C5CC5)c4=O)nc3)ccn2)cn1` [Compound 104, 1-cyclopropyl-N-(5-((2-(1-methyl-1H-pyrazol-4-yl)pyridin-4-yl)oxy)pyridin-2-yl)-2-oxo-1,2-dihydropyridine-3-carboxamide], the IC50 in the assay with Ba/F3^BCR-FMS-11 cells (Mus musculus, 72 h) is 6 nM; in assay [1], 14 nM; in assay [2], 5 nM.
Turning to `Cn1cc(-c2cc(Oc3ccc(NC(=O)c4ccc(N)n(C)c4=O)nc3)ccn2)cn1` [Compound 105, 6-amino-1-methyl-N-(5-((2-(1-methyl-1H-pyrazol-4-yl)pyridin-4-yl)oxy)pyridin-2-yl)-2-oxo-1,2-dihydropyridine-3-carboxamide], the 50% inhibitory concentration (IC50) amounted to 84 nM in the assay on Ba/F3^BCR-FMS-11 cells (Mus musculus, 72 h); 69 nM in assay [1]; 9 nM in assay [2].
In the case of `CNc1ccc(C(=O)Nc2ccc(Oc3ccnc(-c4cnn(C)c4)c3)cn2)c(=O)n1C` [Compound 106, 1-methyl-N-(5-((2-(1-methyl-1H-pyrazol-4-yl)pyridin-4-yl)oxy)pyridin-2-yl)-6-(methylamino)-2-oxo-1,2-dihydropyridine-3-carboxamide], the IC50 in the assay on Ba/F3^BCR-FMS-11 cells (Mus musculus, 72 h) was determined as 7 nM; in assay [1], 10 nM; in assay [2] it was 7 nM.

Values taken from patent US12435062B2, “Amide compounds and uses thereof” (HUTCHISON MEDIPHARMA LIMITED, priority 2020, dated 2025).
